Test results published in patent publication US7696167B2, “Cyclic peptide compound” (Astellas Pharma Inc., priority 2004, dated 2010).

Test system: HCV replicon
Type: cell-based, hepatitis C virus
Conditions: HCV replicon cells, two days with compound, replicon RNA corrected by GAPDH; read-out: HCV replicon inhibitory activity: EC50
Description: The inhibitory activity against the replication of HCV replicon was evaluated by determining the amount of replicon RNA, purified from cell lysate with a conventional column method, using real-time RT-PCR based on Taq-Man chemistry. The assay was carried out with the modified method reported by Lohmann et al., Science 285: 100 (1999) and Takeuchi et al., Gastroenterology 116: 636-642 (1999). The details thereof are described in the following.
7.5×10^3 HCV replicon cells in 0.1 ml of D-MEM medium containing 5% fetal bovine serum and 300 μg/ml of G418 (Kishine et al., B.B.R.C. 293: 993-999 (2002)) were seeded in each well of a 96-well microtiter plate (Corning Inc.). After the plate was incubated at 37° C. for 16 hours in 5% CO2, the medium was replaced with the above-mentioned medium in which the test compound was dissolved. […]
RT-PCR was carried out by using the ABI PRISM 7900HT sequence detection system (Applied Biosystems Inc.), and the gene copy number of the HCV replicon RNA in each cell was determined. […]
As a further control for RNA recovery in each assay well, the copy number of cellular Glyceraldehyde-3-phosphate dehydrogenase (GAPDH) mRNA was quantified by real-time RT-PCR with specific primer set and probe (all of these were produced by Takara Shuzo Co., Ltd.) as described above (part3) […]

## C/C=C/C[C@@H](C)[C@@H](O)[C@H]1C(=O)N[C@@H]([C@@H](C)O)C(=O)N(C)CC(=O)N(C)[C@@H](CC(C)C)C(=O)N[C@@H](CC(C)C)C(=O)N(C)[C@@H](CC(C)C)C(=O)N[C@@H](C)C(=O)N[C@H](C)C(=O)N(C)[C@@H](C[C@H](C)CO)C(=O)N[C@@H](CC(C)C)C(=O)N(C)[C@@H](C(C)C)C(=O)N1C [(2)]
  EC50: < 3000 nM
